Assay results taken from patent US20100069316A1, “TREATMENT FOR MULTIPLE MYELOMA” (Ares Trading S.A., priority 2006, published 2010).
Read-outs that look alike come from different tables or passages of the source.

Legend:
Assay type in all cases: cell-based, human
[1] = tested on: XG7 myeloma cell line; assay: Cell proliferation assay (tritiated thymidine incorporation), XG7; settings: for IC50: Homo sapiens; for IC10: XG7, concentration yielding 10% inhibition of proliferation
Procedure: (§1) Myeloma cells were harvested in the exponential growth phase (at day 3 after culture passage when the cell concentration is around 5×10^5 cells/ml). Cells were washed twice, cultured for 3 hours in RPMI1640 and 10% FCS, washed twice. This makes it possible to remove cell-bound growth factors (in particular recombinant IL-6). Then cells are plated in 96-well flat-bottomed microplates at various concentrations depending on their doubling time: • 5×10^3 cells/well in 100 μl for the cell lines: XG-1, XG-7 • 10^4 cells/well in […] for the cell lines: XG-2, XG-4, XG-6, XG-11, PRMI8226, L363 • 2×10^4 cells/well in 100 μl for the cell lines: XG-3, XG-12, XG-13, XG-14, XG-19, XG-20
(§2) The culture medium used were: • PRMI1640, 10% FCS and 0.5 ng/ml of IL-6 for XG-1, XG-2, XG-3, XG-4, XG-6, XG-7, XG-11, XG-12, XG-13, XG-19, XG-20 cells • X-VIVO20 and 0.5 ng/ml IL-6 for XG-14 cells • PRMI1640 and 10% FCS for RPMI8226 and L363 cells
(§3) The diluted compounds, DMSO or control culture medium were added in 100 μl at the start of the culture. Three culture wells were done for one compound dilution and the experiments were done twice (finally six culture wells for one compound dilution).
(§4) Cells were cultured for 4 days. Eight hours before the end of the culture, 0.5 μCi of tritiated thymidine were added in 50 μl of RPMI1640 and 10% FCS. Cells were then extracted with a cell collector and the thymidine incorporation was determined using a beta cell counter.
(§5) For each experiment, the mean tritiated thymidine incorporations (mean values determined on three culture wells) were plotted against the logarithmic concentrations of the compound. The curves were fitted with exponential regression, which was determined using the concentrations defining the inhibition response (usually 3-4 concentrations).
(§6) The concentrations yielding 50% and 90% inhibition of the proliferation of myeloma cells were determined with these regression curves.
(§7) The concentration yielding 10% (IC10) or 50% (IC50) inhibition of the myeloma cell lines were determined and the data are listed in Table 2.
(§8) Compound A was tested in combination with melphalan or Velcade. Increasing concentration of compound A (0, 0.01, 0.03, 0.12, 0.37, 1.1, 3.1, 10, 30 μM) were applied on 4 myeloma cell lines alone or in combination with Velcade or melphalan at concentration yielding around 10% or 50% inhibition.

[2] = tested on: XG3 myeloma cell line; assay: Cell proliferation assay (tritiated thymidine incorporation), XG3; settings: for IC50: Homo sapiens; for IC10: XG3, concentration yielding 10% inhibition of proliferation
Procedure: as §1, §2, §3, §4, §5, §6, §7, §8

[3] = tested on: XG12 myeloma cell line; assay: Cell proliferation assay (tritiated thymidine incorporation), XG12; settings: for IC50: Homo sapiens; for IC10: XG12, concentration yielding 10% inhibition of proliferation
Procedure: as §1, §2, §3, §4, §5, §6, §7, §8

[4] = tested on: L363 myeloma cell line; assay: Cell proliferation assay (tritiated thymidine incorporation), L363; settings: for IC50: Homo sapiens; for IC10: L363, concentration yielding 10% inhibition of proliferation
Procedure: as §1, §2, §3, §4, §5, §6, §7, §8

IC50 ([1]; XG7, proliferation, read-out: IC50) | IC50 ([2]; XG3, proliferation, read-out: IC50) | IC50 ([3]; XG12, proliferation, read-out: IC50) | IC50 ([4]; L-363, L363, proliferation, read-out: IC50) | SMILES | IC50 [1] | IC10 [1] | IC50 [2] | IC10 [2] | IC50 [3] | IC10 [3] | IC50 ([4]; L-363) | IC10 [4]
 |  |  |  | N[C@@H](Cc1ccc(N(CCCl)CCCl)cc1)C(=O)O [Melphalan, melphalan] | 1180 nM | 409 nM | 1680 nM | 490 nM | 1230 nM | 318 nM | 457 nM | 110 nM
3.5 nM | 2.2 nM | 3.9 nM | 8.4 nM | CC(C)C[C@H](NC(=O)[C@H](Cc1ccccc1)NC(=O)c1cnccn1)B(O)O [Velcade, bortezomib] |  | 1.4 nM |  | 1.6 nM |  | 1.6 nM |  | 4.9 nM
